Data taken from patent publication US12594278B2, “Method for treatment of muscular dystrophy” (CHILDREN'S NATIONAL MEDICAL CENTER, priority 2019, dated 2026).

System: B6A/J FAPs
Assay: Spontaneous adipogenesis of B6A/J FAPs in culture with batimastat (Oil Red O)
Type: cell-based, mouse
Conditions: 10 μM batimastat from day 3 in culture; 40,000 FAPs from 12Mo B6A/J mice; vs untreated
Experimental: To test this, and to independently confirm the benefit of inhibiting adipogenic differentiation of FAPs for dysferlinopathy, a drug was used to inhibit adipogenic differentiation of FAPs. […] To test the ability of batimastat to prevent the spontaneous adipogenesis of B6A/J FAPs, 40,000 FAPs isolated from 12Mo B6A/J mice were treated with 10 μM batimastat starting from 3 days in culture. Using Oil Red O, the extent of adipogenic differentiation of these FAPs after 14 days in culture was quantified in vitro (FIG. 11A).
Isolation and In Vitro Adipogenesis of FAPs. FAPs were isolated from the hindlimb muscles of 6Mo B6A/J mice in a modified protocol from previously published studies. Mice were euthanized and the tibialis anterior, extensor digitorum longus, gastrocnemius, soleus, quadriceps and psoas were immediately dissected. Non-muscle tissue including tendon, nerve and overlying fascia were carefully removed, and muscles were minced finely in a sterile dish and incubated in Collagenase II (2.5 U/ml, ThermoFisher, #17101015) in PBS for 30 min at 37° C. The resulting slurry was washed with sterile PBS before further digest in Collagenase D (1.5 U/ml, Sigma Aldridge, #COLLD-RO) and Dispase II (2.4 U/ml, Sigma Aldridge, #D4693) in PBS for 60 min at 37° C. […]

CNC(=O)[C@H](Cc1ccccc1)NC(=O)[C@H](CC(C)C)[C@H](CSc1cccs1)C(=O)NO [batimastat]
spontaneous adipogenesis of the B6A/J FAPs (Oil Red O): reduced spontaneous adipogenesis
